We go through 17 molecules from PubChem BioAssay AID330 (DTP/NCI, 2004).

This assay has as its system P388 leukemia ip, CD2F1 mice, survival T/C. Put plainly: NCI In Vivo Anticancer Drug Screen. Data for tumor model P388 Leukemia (intraperitoneal) in CD2F1 (CDF1) mice. The settings on record: endpoint: median survival time, higher = longer survival. An outline of the steps: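 Mice carrying the transplanted tumor received test compound or vehicle. Survival was recorded in each group, and the value is the treated-group measurement divided by that of the vehicle-treated control group.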

The mark [1] stands for this setting: dose: 6.25 mg/kg/injection, schedule: Q01DX009 (ip), vehicle: saline.
[2] abbreviates: dose: 12.5 mg/kg/injection, schedule: Q01DX009 (ip), vehicle: saline.
Setting [3] is: dose: 12.5 mg/kg/injection, schedule: Q01DX005 (ip), vehicle: Klucel (hydroxypropylcellulose) (HPC).
[4] abbreviates: dose: 25.0 mg/kg/injection, schedule: Q01DX005 (ip), vehicle: Klucel (hydroxypropylcellulose) (HPC).
Where [5] appears, read: dose: 50.0 mg/kg/injection, schedule: Q01DX005 (ip), vehicle: Klucel (hydroxypropylcellulose) (HPC).
The mark [6] stands for this setting: dose: 100.0 mg/kg/injection, schedule: Q01DX005 (ip), vehicle: Klucel (hydroxypropylcellulose) (HPC).
[7] abbreviates: dose: 10.0 mg/kg/injection, schedule: Q01DX009 (ip), vehicle: saline with Tween-80.
The mark [8] stands for this setting: dose: 20.0 mg/kg/injection, schedule: Q01DX009 (ip), vehicle: saline with Tween-80.

Where “and” joins values, the source holds several entries; their conditions need not be identical. Equal entries are not always repeated. Toxic doses and inconclusive results are not listed.

Take `C/C(N)=N\O`: the T/C by setting is: (dose: 50.0 mg/kg/injection, schedule: Q01DX009 (ip), vehicle: saline) 94 % of control; (dose: 100.0 mg/kg/injection, schedule: Q01DX009 (ip), vehicle: saline) 114 % of control; (dose: 200.0 mg/kg/injection, schedule: Q01DX009 (ip), vehicle: saline) 104 % of control.

Turning to `C[C@H]1/C(=C/C(=O)OCCN(C)C)CC[C@H]2[C@H]1C(=O)C[C@H]1C(C)(C)[C@@H](O)CC[C@]21C`, the T/C runs as follows: (dose: 3.12 mg/kg/injection, schedule: Q01DX009 (ip), vehicle: saline) 101 % of control; under setting [1], 96 % of control; under setting [2], 100 % of control; (dose: 25.0 mg/kg/injection, schedule: Q01DX009 (ip), vehicle: saline) 100 % of control.

For `CCN(CC)CCNC1=C(Cl)C(=O)c2ccccc2C1=O`, the T/C reads like this: (dose: 1.56 mg/kg/injection, schedule: Q01DX009 (ip), vehicle: saline) 95 % of control; (dose: 3.13 mg/kg/injection, schedule: Q01DX009 (ip), vehicle: saline) 96 % of control; under setting [1], 96 % of control; (dose: 12.5 mg/kg/injection, schedule: Q01DX009 (ip), vehicle: distilled water + Tween-80) 100 % of control; under setting [2], 101 % of control.

On to `Cc1ccc(C(=O)Cc2ccccc2C#N)cc1`, for which the T/C is, setting by setting: under setting [3], 102 % of control and 103 % of control; under setting [4], 88 % of control and 97 % of control; under setting [5], 97 % of control; under setting [6], 105 % of control.

Take `CCOC(=O)NC(=Nc1cccc(C(=O)c2ccc3nc(NC(=O)OCC)[nH]c3c2)c1)NC(=O)OCC`: the T/C by setting is: (dose: 15.0 mg/kg/injection, schedule: Q01DX005 (ip), vehicle: saline with Tween-80) 89 % of control; (dose: 30.0 mg/kg/injection, schedule: Q01DX005 (ip), vehicle: saline with Tween-80) 94 % of control.

Take `CC(=O)NCCSSCc1ccccc1CS(=O)O`: the T/C is 104 % of control (dose: 25.0 mg/kg/injection, schedule: Q01DX005 (ip), vehicle: suspension in saline); 106 % of control (dose: 50.0 mg/kg/injection, schedule: Q01DX005 (ip), vehicle: suspension in saline); 113 % of control (dose: 100.0 mg/kg/injection, schedule: Q01DX005 (ip), vehicle: suspension in saline).

Turning to `CNS(=O)Nc1ccnc(=O)[nH]1` (stereo unspecified), the T/C was 99 % of control (dose: 50.0 mg/kg/injection, schedule: Q04DX002 (ip), vehicle: Klucel (hydroxypropylcellulose) (HPC)); 100 % of control (dose: 100.0 mg/kg/injection, schedule: Q04DX002 (ip), vehicle: Klucel (hydroxypropylcellulose) (HPC)); 106 % of control (dose: 200.0 mg/kg/injection, schedule: Q04DX002 (ip), vehicle: Klucel (hydroxypropylcellulose) (HPC)); 100 % of control (dose: 400.0 mg/kg/injection, schedule: Q04DX002 (ip), vehicle: Klucel (hydroxypropylcellulose) (HPC)).

Consider `O=S(=O)(Cl)CCCCS(=O)(=O)Cl`, for which the T/C is 103 % of control (dose: 12.5 mg/kg/injection, schedule: Q01DX009 (ip), vehicle: Klucel (hydroxypropylcellulose) (HPC)); 91 % of control (dose: 25.0 mg/kg/injection, schedule: Q01DX009 (ip), vehicle: Klucel (hydroxypropylcellulose) (HPC)); 99 % of control and 101 % of control (dose: 50.0 mg/kg/injection, schedule: Q01DX009 (ip), vehicle: Klucel (hydroxypropylcellulose) (HPC)).

Take `C/C=C/CCC(=O)CC(O)CCO` (stereo unspecified): the T/C runs as follows: under setting [3], 101 % of control; under setting [4], 98 % of control; under setting [5], 104 % of control and 89 % of control; under setting [6], 104 % of control; (dose: 200.0 mg/kg/injection, schedule: Q01DX005 (ip), vehicle: Klucel (hydroxypropylcellulose) (HPC)) 101 % of control; (dose: 400.0 mg/kg/injection, schedule: Q01DX005 (ip), vehicle: Klucel (hydroxypropylcellulose) (HPC)) 111 % of control.

For the molecule `C=C(C)C1CC(=O)C2(C)OC2C1` (stereo unspecified), the T/C is 101 % of control (dose: 100.0 mg/kg/injection, schedule: Q04DX002 (ip), vehicle: saline); 100 % of control (dose: 200.0 mg/kg/injection, schedule: Q04DX002 (ip), vehicle: saline); 97 % of control (dose: 400.0 mg/kg/injection, schedule: Q04DX002 (ip), vehicle: saline).

`CCCCCCCCCCCC(O)CCCC(O)CC(O)CC1CC2CC(CC(=O)O2)O1` (stereo unspecified): the T/C reads like this: (dose: 4.0 mg/kg/injection, schedule: Q01DX009 (ip), vehicle: Klucel (hydroxypropylcellulose) (HPC)) 100 % of control; (dose: 8.0 mg/kg/injection, schedule: Q01DX009 (ip), vehicle: Klucel (hydroxypropylcellulose) (HPC)) 99 % of control; (dose: 16.0 mg/kg/injection, schedule: Q01DX009 (ip), vehicle: Klucel (hydroxypropylcellulose) (HPC)) 95 % of control; (dose: 32.0 mg/kg/injection, schedule: Q01DX009 (ip), vehicle: Klucel (hydroxypropylcellulose) (HPC)) 95 % of control; (dose: 64.0 mg/kg/injection, schedule: Q01DX009 (ip), vehicle: Klucel (hydroxypropylcellulose) (HPC)) 94 % of control.

Take `NC(CC(=O)CCl)C(=O)O` (stereo unspecified): the T/C was 154 % of control (dose: 5.0 mg/kg/injection, schedule: Q01DX009 (ip), vehicle: saline with Tween-80); 150 % of control (dose: 6.25 mg/kg/injection, schedule: Q04DX003 (ip), vehicle: saline); 168 % of control under setting [7]; 166 % of control (dose: 12.5 mg/kg/injection, schedule: Q04DX003 (ip), vehicle: saline); 159 % of control under setting [8]; 176 % of control (dose: 50.0 mg/kg/injection, schedule: Q04DX003 (ip), vehicle: saline).

`COc1ccc(-c2coc3c4c(ccc3c2=O)OCO4)cc1OC`: the T/C runs as follows: (dose: 9.75 mg/kg/injection, schedule: Q01DX005 (ip), vehicle: Klucel (hydroxypropylcellulose) (HPC)) 94 % of control; (dose: 19.5 mg/kg/injection, schedule: Q01DX005 (ip), vehicle: Klucel (hydroxypropylcellulose) (HPC)) 94 % of control; (dose: 39.0 mg/kg/injection, schedule: Q01DX005 (ip), vehicle: Klucel (hydroxypropylcellulose) (HPC)) 87 % of control; (dose: 78.0 mg/kg/injection, schedule: Q01DX005 (ip), vehicle: Klucel (hydroxypropylcellulose) (HPC)) 86 % of control.

In the case of `Cc1cc2cc3ccc(Cl)nn3c2nn1`, the T/C is 104 % of control (dose: 25.0 mg/kg/injection, schedule: Q01DX005 (ip), vehicle: saline with Tween-80); 99 % of control (dose: 50.0 mg/kg/injection, schedule: Q01DX005 (ip), vehicle: saline with Tween-80); 95 % of control (dose: 100.0 mg/kg/injection, schedule: Q01DX005 (ip), vehicle: saline with Tween-80); 96 % of control (dose: 200.0 mg/kg/injection, schedule: Q01DX005 (ip), vehicle: saline with Tween-80).

On to `O=C1C=C(N2CC2)C(=O)C(N2CC2)=C1N1CC1`, for which the T/C by setting is: (dose: 0.02 mg/kg/injection, schedule: Q01DX005 (ip), vehicle: saline) 155 % of control; (dose: 0.04 mg/kg/injection, schedule: Q01DX005 (ip), vehicle: saline) 157 % of control and 158 % of control and 175 % of control; (dose: 0.08 mg/kg/injection, schedule: Q01DX005 (ip), vehicle: saline) 191 % of control and 194 % of control and 214 % of control; (dose: 0.16 mg/kg/injection, schedule: Q01DX005 (ip), vehicle: saline) 215 % of control and 226 % of control and 287 % of control; (dose: 0.32 mg/kg/injection, schedule: Q01DX005 (ip), vehicle: saline) 111 % of control.

For `CC(=O)C(=O)c1ccc(O)cc1O`, the T/C is 96 % of control under setting [7]; 103 % of control under setting [8]; 107 % of control (dose: 40.0 mg/kg/injection, schedule: Q01DX009 (ip), vehicle: saline with Tween-80).

As to `CC1(C)COC(=O)/C1=C\C#N`, the T/C was 94 % of control and 98 % of control (dose: 50.0 mg/kg/injection, schedule: Q04DX003 (ip), vehicle: Klucel (hydroxypropylcellulose) (HPC)); 105 % of control (dose: 100.0 mg/kg/injection, schedule: Q04DX003 (ip), vehicle: Klucel (hydroxypropylcellulose) (HPC)); 101 % of control (dose: 100.0 mg/kg/injection, schedule: Q04DX003 (ip), vehicle: saline); 100 % of control and 97 % of control (dose: 200.0 mg/kg/injection, schedule: Q04DX003 (ip), vehicle: Klucel (hydroxypropylcellulose) (HPC)); 111 % of control (dose: 200.0 mg/kg/injection, schedule: Q04DX003 (ip), vehicle: saline); 105 % of control (dose: 400.0 mg/kg/injection, schedule: Q04DX003 (ip), vehicle: Klucel (hydroxypropylcellulose) (HPC)). Besides, the T/C (dose: 400.0 mg/kg/injection, schedule: Q04DX003 (ip), vehicle: saline) is 120 % of control.
